This is an account of results in US12053456B2, “Pharmaceutical compositions for combination therapy” (GENFIT, priority 2017, dated 2024).

This assay deals with α-SMA in TGFβ1-induced hHSC. The experiment in a line: α-SMA ELISA in TGFβ1-activated human primary hepatic stellate cells (single agents and combination matrix, EOB/EOHSA). The note with it: single agent, 1 hour preincubation, TGFβ1 1 ng/ml, 48 hours. It is filed as cell-based. On the procedure:
Serum-deprived HSC were preincubated for 1 hour with Elafibranor (A) or Nitazoxanide (B), or Bezafibrate (C) before the activation with the profibrogenic cytokine TGFβ1 (1 ng/ml). After 48 hours of incubation, the expression of α-SMA was measured by ELISA. The obtained values were transformed into percentage inhibition over TGFβ1 control. Data are presented as mean (triplicates)±standard deviation (SD)]. The curve fitting and the calculation of half maximal inhibitory concentration (IC50) were performed with XLFit software 5.3.1.3.
Combinations were tested in a dose-response matrix format and analyzed according to the excess over Bliss (EOB) additivism model. Dilution series of Elafibranor (row) and Nitazoxanide (column) were prepared, including their respective DMSO controls. The resulting mixes were added to serum-deprived HSC, 1 hour prior to the activation with the profibrogenic cytokine TGFβ1 (1 ng/ml). […] (B) EOB scores were calculated as described in Materials and Methods. […] The total EOB score including all combinations was also calculated. […]
Combinations were tested in a dose-response matrix format and analyzed according to the excess over Bliss (EOB) additivism model. […] Percentage of α-SMA inhibition over the TGFβ1 control for all combination pairs was calculated. EOB scores were calculated as described in Materials and Methods. […]
In general terms: An ELISA detects its analyte on a solid surface through an enzyme-linked reagent.

As to `O=C(Nc1ncc([N+](=O)[O-])s1)c1ccccc1O` [TZ, tizoxanide], the “antifibrotic activity (α-SMA) in TGFβ-induced hHSC” value was “profile similar to the parent drug”.
